Numbers after ± are expanded uncertainties.
Assays:
[1] = Molar enthalpy of transition or fusion; details: DSC
[2] = DTA; for Normal melting temperature: Crystal 1

| Compound | Molar enthalpy of transition or fusion ([1]; Crystal 1) [kcal/mol] | Molar enthalpy of transition or fusion ([1]; Crystal 2) [kcal/mol] | Molar enthalpy of transition or fusion ([1]; Crystal 3) [kcal/mol] | Normal melting temperature [2] [°C] | Triple point temperature ([2]; Crystal 2) [K] | Triple point temperature ([2]; Crystal 3) [K] |
| --- | --- | --- | --- | --- | --- | --- |
| CCC[N+]1(C)CCCCC1.F[P-](F)(F)(F)(F)F [1-methyl-1-propylpiperidinium hexafluorophosphate] | 1.23 ± 0.0454 | 0.664 ± 0.0335 | 1.89 ± 0.1 | 95.1 ± 0.4 | 350.96 ± 0.39 | 310.6 ± 0.73 |
| CCC[N+]1(C)CCCC1.F[P-](F)(F)(F)(F)F [1-methyl-1-propylpyrrolidinium hexafluorophosphate] | 0.875 ± 0.0765 | 0.55 ± 0.0478 | 0.66 ± 0.0502 | 110.5 ± 1.4 | 360.88 ± 1.7 | 348.58 ± 1.3 |
| CCCC[N+](CCCC)(CCCC)CCCC.F[P-](F)(F)(F)(F)F [tetrabutylammonium hexafluorophosphate] | 3.92 ± 0.153 | 0.492 ± 0.55 | 0.502 ± 0.0526 | 251.1 ± 0.9 | 360.7 ± 0.7 | 303.95 ± 0.39 |
| CCCC[P+](CCCC)(CCCC)CCCC.F[P-](F)(F)(F)(F)F [tetrabutylphosphonium hexafluorophosphate] | 3.51 ± 0.0884 | – | 0.433 ± 0.0335 | 225.5 ± 0.4 | – | 265.37 ± 0.39 |

— the NIST ThermoML archive (doi:10.1016/j.fluid.2013.07.061)
